Measured values: patent US20150087722A1, “TREATMENT FOR BREAST TUMOR CELL METASTASIS” (China Medical University, priority 2012, published 2015)

Legend:
[1] = tested on: ROS content in breast tumor cells MDA-MB-453; experiment: reactive oxygen species method; format: cell-based, human; details: 40 μM
Description: In FIG. 12, the reactive oxygen species method was used to detect the effect of increased treatment doses of the compound II on the ROS content in breast tumor cells, and a photograph was taken at a 200× field under the fluorescence microscope. In the intracellular reactive oxygen species method, the cells were planted in a 24-well plate (5×10^4 cells/well). The next day after the cells were adhered to the wall, the cells were cultured in a serum free DMEM culture medium at an atmosphere of 5% CO2 in an incubator at 37° C. for 12 h. The compound II was added into the 1% FBS-DMEM culture medium, and the cells were cultured in the culture medium for 2 h. The cells were then washed with PBS. 100 ng/mL LPS was added to react with the cells, and then the cells were washed with PBS. […] The absorbance was measured by a fluorescence spectrometer, where the excitation wavelength was set as 485±20 nm, and the […] was set as 530±25 nm. […] Thus in the following the cells were treated with 40 μM the compound II and then the ROS content of cells was detected. […] FIG. 23 is a quantitative diagram showing the effect of increasing treatment time on the ROS content of breast tumor cells when the reactive oxygen species method was performed to detect the breast tumor cells treated with 40 μM the compound II. […]

[2] = tested on: EMT-related proteins in breast tumor cells MDA-MB-231; experiment: western blotting of EMT-related proteins; format: cell-based, human; details: MDA-MB-231, 0.5, 1 and 2 μM, 24 h, with dose increasing
Description: FIG. 2A illustrates the expression results of EMT-related proteins in breast tumor cells MDA-MB-231 after the breast tumor cells MDA-MB-231 have been respectively cultured under compound II having concentrations of 0, 0.5, 1 and 2 μM for 24 h; and FIG. 2B illustrates the expression results of EMT-related proteins in breast tumor cells MCF-7 after the breast tumor cells MCF-7 have been respectively cultured under the compound II having concentrations of 0, 10, 15 and 20 μM for 24 h. FIG. 3A illustrates the western blotting results of EMT-related proteins in the breast tumor cells MDA-MB-468, where the breast tumor cells MDA-MB-468 are treated with the compound I having concentrations of 0, 0.5, 1 and 2 μM for 24 h, and FIG. 3B illustrates the western blotting results of EMT-related proteins in the breast tumor cells MDA-MB-435, where the breast tumor cells MDA-MB-435 are treated with the compound I having concentrations of 0, 2.5, 5 and 7.5 μM for 24 h. […] Then luminescence image equipment was used, where the PVDF was placed onto a black metal plate by a plastic pincer and the face including protein was upwards, a 1:1 mixed Chemiluminesent Substrate was added into the membrane and the exposure time depends on the fluorescence intensity of antibodies. […]

Question: COC1=C(OC)C(=O)C(C)=C(C)C1=O [compound II] was tested. Which “content of oxygen species compared with the control group” value [1] did it give?
Answer: higher

Question: What about the “expression amount of E-cadherin, occludin and ICAM” value [2] of the same compound?
Answer: increased

Question: What about the “expression amount of proteins facilitating tumor cell proliferation (Twist, Snail, vimentin, β-catenin, VEGF)” value [2] of the same compound?
Answer: decreased
